Assay results: patent publication US12599597B2, “Substituted N-benzhydrylacetamide inhibitors of jumanji domain histone demethylases for the treatment of cancer” (University of Kentucky Research Foundation, priority 2020, dated 2026)

Assays:
[1] = tested on: histone methylation in HEK293T cells; assay: Histone methylation in HEK293T cells; type: cell-based; details: 5 μM
Protocol: To determine if 58B1 regulates Wnt signaling through epigenetic mechanism, the effects of 58B1 on histone methylation were analyzed. […] Similar results were found in LS174T colon cancer cells. H3K9 and H3K27 methylations are negative regulators of transcription. Without wishing to be bound by theory, it is believed that 58B1 inhibited Wnt signaling by increasing H3K9 or H3K27 methylation on Wnt target gene promotors.

[2] = tested on: H3K9Me2 on the promoter of c-Myc gene; assay: ChIP assay followed by qPCR; type: cell-based
Excerpt: (§1) CBA-1 increased repressive histone methylation on Wnt target genes. The present inventors reported that mutations in APC or β-catenin N-terminal phosphorylation sites prevented β-catenin degradation in CRC cells. […] Because CBA-1 inhibited Wnt signaling in CRC cells, it was reasonable to assume that it inhibited Wnt signaling downstream of β-catenin, most likely by blocking β-catenin activity in the nucleus. Consequently, the present inventors hypothesized that CBA-1 inhibited Wnt signaling epigenetically by altering chromatin remodeling, and they probed the effects of CBA-1 on histone methylation in CRC cells.

[3] = tested on: SW620; assay: Colon cancer cell proliferation; type: cell-based; details: SW620 (APC mutation); 5d, Vi-Cell viability assay
Excerpt: FIGS. 5A-B show an image and graph illustrating validation of CBA-1. (A) CBA-1 repressed Wnt targets in LS174T CRC cells. (B) CBA-1 inhibited CRC cell proliferation (5d, Vi-Cell viability assay).
Identification of a CBA-1 as a novel Wnt inhibitor. The present inventors routinely use TOPFlash reporter assay for Wnt inhibitor screening. To mimic the constitutively active Wnt signaling found in CRC cells, Wnt signaling was activated by inhibiting GSK3 and stabilizing β-catenin. From screening in house small-molecule libraries, CBA-1 (FIG. 4) was identified that inhibited Wnt signaling in TOPFlash reporter assay. To validate the screening results, CBA-1 was tested in CRC cells.

[4] = target: KDM3B (Homo sapiens, UniProt Q7LBC6); assay: KDM3B enzymatic activity; type: biochemical; details: at 10 μM
Excerpt: Other KDM3 members as CBA-1 targets. Inhibition of KDM3A by CBA-1 increased H3K9Me^2 and inhibited Wnt signaling; however, other KDM3 members may also regulate H3K9 methylation. For example, both KDM3B and KDM3C (JMJD1C) regulated Wnt signaling. Given the high similarity of their structures (FIG. 10A), particularly the JmjC domains, it is believed that CBA-1 would inhibit KDM3B and KDM3C as well. […] CBA-1 coordinated with Mn^2+ at a longer distance in KDM3B (3.9 Å) than the distance in KDM3A (2.8 Å) (FIGS. 8B and 10B). This could be one of the reasons that CBA-1 inhibited KDM3A better than KDM3B.
Repurposing drugs as CBA-1 analogs and KDM3 inhibitors. CBA-1 is a specific and potent KDM3A inhibitor. As backup candidates, two approved drugs were identified as CBA-1 analogs and KDM3A inhibitors. Based on the docking study (FIGS. 8A-B), the N and OH groups (red color in FIG. 12A) are critical in binding the Mn^2+ in KDM3A. […] A virtual screening was performed and several antibiotics that have similar structures were identified. Two of these antibiotics, clioquinol and nitroxoline (FIG. 12B), indeed inhibited the enzymatic activities of KDM3 (FIGS. 12C and D). These two drugs were tested in LS174T tumor xenograft model in SCID mice. […] Nitroxoline has been used in Europe for over 50 years as an antibiotic. It has anticancer effects, but the mechanism remains unclear.

[5] = tested on: histone methylation in CRC cells; assay: Histone methylation in CRC cells; type: cell-based
Excerpt: as §1

[6] = tested on: Wnt signaling; assay: Zebrafish Wnt signaling models; type: in vivo
Excerpt: FIGS. 1A-F show a KDM3A inhibitor, called “58B1,” that inhibited Wnt signaling in vitro and in vivo. (A) Docking of 58B1 to the Jumonji domain. (B) 58B1 inhibited KDM3A enzymatic activity in vitro. (C) KDM3A was overexpressed in CRC. (D) 58B1 increased repressor markers, H3K9Me^2 and K3K9Me^3. (E) 58B1 inhibited Wnt target genes in CRC cells. (F) 58B1 inhibited Wnt signaling in a transgenic zebrafish model. In this model, GFP was control by a Wnt-responsive promoter. In the control fish, GFP was expressed in the tail, where has higher levels on Wnt signaling. 58B1 treatment abolished GFP expression in the tail.
CBA-1 inhibited Wnt signaling in Zebrafish models. Zebrafish provide a well-established in vivo model to study Wnt signaling. Wnt signaling is active in the tail of the larvae during development (FIG. 4), and CBA-1 inhibited Wnt signaling in the tail. […] To rule out the possibility that CBA-1 inhibits the Wnt-mediated phenotype through nonspecific or even toxic effects, an eye-rescue experiment was performed.

Sequence of KDM3B (Q7LBC6 whole entry, the tested form may be a part): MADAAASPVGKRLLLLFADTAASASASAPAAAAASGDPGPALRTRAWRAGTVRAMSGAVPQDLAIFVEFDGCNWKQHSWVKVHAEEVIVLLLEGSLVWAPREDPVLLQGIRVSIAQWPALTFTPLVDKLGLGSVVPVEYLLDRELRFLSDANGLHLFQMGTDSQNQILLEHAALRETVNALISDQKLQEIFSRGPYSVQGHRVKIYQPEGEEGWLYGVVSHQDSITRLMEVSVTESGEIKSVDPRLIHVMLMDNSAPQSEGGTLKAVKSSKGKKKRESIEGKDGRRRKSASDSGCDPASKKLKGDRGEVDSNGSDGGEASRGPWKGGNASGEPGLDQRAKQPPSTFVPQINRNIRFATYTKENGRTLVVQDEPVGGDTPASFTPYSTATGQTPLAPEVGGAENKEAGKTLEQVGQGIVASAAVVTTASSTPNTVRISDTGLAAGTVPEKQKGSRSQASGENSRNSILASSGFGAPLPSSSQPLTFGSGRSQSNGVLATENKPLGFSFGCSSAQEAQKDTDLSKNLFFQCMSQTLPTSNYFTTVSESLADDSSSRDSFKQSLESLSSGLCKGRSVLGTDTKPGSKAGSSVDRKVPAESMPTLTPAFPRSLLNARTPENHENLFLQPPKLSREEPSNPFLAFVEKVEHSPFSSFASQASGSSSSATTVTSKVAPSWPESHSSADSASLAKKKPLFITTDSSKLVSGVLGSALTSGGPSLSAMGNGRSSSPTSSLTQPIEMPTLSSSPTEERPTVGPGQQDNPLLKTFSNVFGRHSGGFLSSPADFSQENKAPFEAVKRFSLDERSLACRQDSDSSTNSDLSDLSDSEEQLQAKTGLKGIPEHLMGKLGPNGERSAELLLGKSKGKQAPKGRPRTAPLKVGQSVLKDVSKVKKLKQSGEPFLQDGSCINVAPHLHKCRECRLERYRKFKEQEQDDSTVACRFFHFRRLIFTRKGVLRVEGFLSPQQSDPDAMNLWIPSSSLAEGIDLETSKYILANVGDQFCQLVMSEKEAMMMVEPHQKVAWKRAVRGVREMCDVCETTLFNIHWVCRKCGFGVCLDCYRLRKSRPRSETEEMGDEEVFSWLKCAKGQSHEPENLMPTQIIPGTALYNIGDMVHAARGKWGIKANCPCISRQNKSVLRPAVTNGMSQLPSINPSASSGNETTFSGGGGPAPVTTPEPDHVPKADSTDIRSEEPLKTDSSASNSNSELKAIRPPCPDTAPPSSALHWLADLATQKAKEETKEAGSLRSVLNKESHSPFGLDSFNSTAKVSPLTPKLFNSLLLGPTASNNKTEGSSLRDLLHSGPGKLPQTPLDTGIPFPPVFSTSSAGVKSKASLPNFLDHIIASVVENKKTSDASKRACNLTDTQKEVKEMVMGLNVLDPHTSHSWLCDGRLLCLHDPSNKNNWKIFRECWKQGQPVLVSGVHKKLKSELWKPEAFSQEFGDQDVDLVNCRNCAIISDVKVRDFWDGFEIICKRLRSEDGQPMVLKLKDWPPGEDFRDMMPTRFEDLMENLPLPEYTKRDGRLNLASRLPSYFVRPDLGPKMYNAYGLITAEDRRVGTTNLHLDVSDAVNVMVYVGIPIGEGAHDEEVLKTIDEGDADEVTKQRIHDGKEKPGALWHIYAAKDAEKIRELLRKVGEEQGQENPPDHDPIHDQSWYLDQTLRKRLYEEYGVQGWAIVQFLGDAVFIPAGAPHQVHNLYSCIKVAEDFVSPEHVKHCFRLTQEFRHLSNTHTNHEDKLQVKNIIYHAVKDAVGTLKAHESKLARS

With CCCC(=O)NC(c1ccc(N(CC)CC)cc1)c1cc(Cl)c2cccnc2c1O (centres unmarked) [58B1] the “H3K4me^2” value [1] was “not”, the “H3K9Me^3” value [1] was “induced” and the “H3K9 dimethylation (H3K9Me^2)” value [1] was “strongly induced”. For the same compound, the “H3K27Me^3” value [1] was “induced”, the “levels of H3K9Me2 on the promoter of c-Myc gene” value ([2]; ChIP, qPCR) was “increased” and the “active markers H3K9Ac and H3K4Me^3 on the promoter of Wnt target genes in CRC cells” value ([2]; expected) was “decrease”. The “repressive marker H3K9Me^2 on the promoter of Wnt target genes in CRC cells” value ([2]; expected) was “increase”, the “proliferation of CRC cell lines” value [3] was “inhibited proliferation” and the KDM3B inhibition [4] was “weakly inhibits”. The “H3K4Me^2” value [5] was “no effect”, the “levels of H3K9Me^2” value [5] was “significantly increased” and the “levels of H3K9Me^3” value [5] was “significantly increased”. The “GFP expression in the tail (Wnt-responsive promoter)” value ([6]; transgenic zebrafish model) was “abolished”, the Wnt-dependent tail regeneration ([6]; zebrafish) was “reduced” and the “toxicity in eye-rescue experiment” value ([6]; zebrafish) was “without obvious toxicity effects”. For the same compound, the “Wnt signaling in the tail” value ([6]; zebrafish larvae) was “inhibited” and the “Wnt-induced eye defects (eye-rescue experiment)” value ([6]; zebrafish, dose-responsive manner) was “rescued”.
